Experimental data: patent US6426355B1, “Heterocyclic carboxamide-containing thiourea inhibitors of herpes viruses containing phenylenediamine group” (American Home Products, priority 1998, dated 2002)
Values after ≈ are worked out from the molar mass of the structure shown.

How the values were obtained:
[1] = system: HCMV recombinant mutant virus (RV145); experiment: HCMV microtiter plate assay (beta-glucuronidase reporter); assay type: cell-based, Human Cytomegalovirus; conditions: for IC50 (ug/ml) HCMV: HCMV in human foreskin fibroblasts; for IC50: Human betaherpesvirus 5, Fibroblast, read-out: IC50 (ug/ml) HCMV
In short: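 Human foreskin fibroblasts were infected with RV145 in the presence of inhibitor. β-glucuronidase under a viral promoter served as the replication marker. At 96 h post-infection, lysates in pH 7.0 phosphate with Triton X-100/sarkosyl were assayed colorimetrically or fluorometrically, and IC50 was estimated from varying inhibitor amounts.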

HSV-1 = experiment: HSV Antiviral (ELISA) assay; assay type: cell-based; conditions: for IC50 (ug/ml) HSV: HSV-1 in Vero cells; for IC50: Human alphaherpesvirus 1, HSV-1 in Vero cells, read-out: IC50 (ug/ml) HSV
In short: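 Vero cells in DMEM/2% FBS pretreated with compound 30 min before HSV-1 infection (MOI 0.006), then ~24 h at 37 °C. Viral gD detected by ELISA with β-galactosidase secondary and 4-methylumbelliferyl-galactoside (ex 365/em 450 nm); IC50 from fluorescence versus untreated infected cells.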

VZV strain Ellen = experiment: VZV Antiviral (ELISA) assay; assay type: cell-based; conditions: for IC50 (ug/ml) VZV / % inhibition 10 ug/ml VZV: VZV strain Ellen in HFF cells; for % inhibition 10 ug/ml VZV: at 10 ug/ml; for IC50: Human alphaherpesvirus 3, VZV strain Ellen in HFF cells, read-out: IC50 (ug/ml) VZV; for inhibition at 10 µg/mL: Human alphaherpesvirus 3, read-out: % inhibition 10 ug/ml VZV, at 10 ug/ml, VZV strain Ellen in HFF cells
In short: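 First, fibroblasts are infected at multiplicity below 0.1 and kept overnight. The harvested cell mixture then goes onto compound-containing wells for three days at 37° C. Finally, cells are fixed and viral gpII is measured by fluorogenic ELISA.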

SMILES | IC50 (ug/ml) HCMV [1] [µg/mL] | IC50 (ug/ml) HSV (HSV-1) [µg/mL] | IC50 (ug/ml) VZV (VZV strain Ellen) [µg/mL] | % inhibition 10 ug/ml VZV (VZV strain Ellen) [%] | IC50 [1] [µg/mL] | IC50 (HSV-1) [µg/mL] | IC50 (VZV strain Ellen) [µg/mL] | inhibition at 10 µg/mL (VZV strain Ellen) [%]
COc1cc(OC)c(NC(=S)Nc2ccc(NC(=O)c3cnns3)cc2)cc1Cl [Example 323] | 0.03 (≈ 0.0667 µM) | 3 (≈ 6.67 µM) | >10 | 45 | – | – | – | –
O=C(Nc1ccc(NC(=S)Nc2ccc(-c3cc[nH]n3)c(Cl)c2)cc1)c1csnn1 [Example 991, [1,2,3]Thiadiazole-4-carboxylic acid (4-{3-[3-chloro-4-(1H-pyrazol-3-yl)-phenyl]-thioureido}-phenyl)-amide] | – | – | – | – | 0.022 (≈ 0.0483 µM) | > 10 | > 10 | 3
CCCCc1nc(C(=O)Nc2ccc(NC(=S)Nc3cc(Cl)cc(Cl)c3)cc2)cs1 [Example 1136, 2-Butyl-thiazole-4-carboxylic acid {4-[3-(3,5-dichloro-phenyl)-thioureido]-phenyl}-amide] | – | – | – | – | 1.6 (≈ 3.34 µM) | 2.9 (≈ 6.05 µM) | 5 (≈ 10.4 µM) | –
Cc1nc2cc(NC(=S)Nc3ccc(NC(=O)c4ccco4)cc3)ccc2[nH]1 [Example 495] | 3 (≈ 7.66 µM) | >10 | >10 | 27 | – | – | – | –
COc1cc(C)c(Cl)cc1NC(=S)Nc1ccc(NC(=O)c2csnn2)cc1 [Example 907, [1,2,3]Thiadiazole-4-carboxylic acid {4-[3-(5-chloro-2-methoxy-4-methyl-phenyl)-thioureido]-phenyl}-amide] | – | – | – | – | 0.009 (≈ 0.0207 µM) | > 10 | > 10 | 36
NNC(=O)c1cccc(NC(=S)Nc2ccc(NC(=O)c3ccco3)cc2)c1 [Example 447] | >10 | >10 | >10 | – | – | – | – | –
CC(O)c1ccc(NC(=S)Nc2ccc(NC(=O)c3ccco3)cc2)cc1Cl (centres unmarked) [Example 917, Furan-2-carboxylic acid (4-{3-[3-chloro-4-(1-hydroxy-ethyl)-phenyl]-thioureido}-phenyl)-amide] | – | – | – | – | 0.2 (≈ 0.481 µM) | 10 (≈ 24 µM) | > 10 | –
CN(C)c1ccc(CNC(=S)Nc2ccc(NC(=O)c3csnn3)cc2)cc1C(F)(F)F [Example 602] | 0.0015 (≈ 0.00312 µM) | >10 | >10 | – | – | – | – | –
COc1ccc(CCNC(=S)Nc2ccc(NC(=O)c3csnn3)cc2)cc1OC [Example 639] | 0.07 (≈ 0.158 µM) | >10 | >10 | – | – | – | – | –
CC(C)c1nc(C(=O)Nc2ccc(NC(=S)Nc3ccc(Cl)c(Cl)c3)cc2)cs1 [Example 1132, 2-Isopropyl-thiazole-4-carboxylic acid {4-[3-(3,4-dichloro-phenyl)-thioureido]-phenyl}-amide] | – | – | – | – | 1.2 (≈ 2.58 µM) | 2.6 (≈ 5.59 µM) | 3.9 (≈ 8.38 µM) | –
O=C(Nc1ccc(NC(=S)NCCc2cccc(Cl)c2)cc1)c1ccco1 [Example 564] | 0.027 (≈ 0.0675 µM) | >10 | 5 (≈ 12.5 µM) | – | – | – | – | –
O=C(CN1CCSCC1)Nc1ccc(NC(=S)Nc2ccc(NC(=O)c3ccco3)cc2)cc1Cl [Example 406] | 0.12 (≈ 0.226 µM) | >10 | >10 | 28 | – | – | – | –
O=C(Nc1ccc(NC(=S)Nc2cccc(O)c2)cc1)c1ccco1 [Example 474] | 1 (≈ 2.83 µM) | >10 | >10 | 22 | – | – | – | –
NC(=O)c1cccc(NC(=S)Nc2ccc(NC(=O)c3csnn3)cc2)c1 [Example 1005, [1,2,3]Thiadiazole-4-carboxylic acid {4-[3-(3-carbamoyl-phenyl)-thioureido]-phenyl}-amide] | – | – | – | – | 2 (≈ 5.02 µM) | > 10 | > 10 | 16
Nc1c(Cl)cc(C(F)(F)F)cc1NC(=S)Nc1ccc(NC(=O)c2ccco2)cc1 [Example 530] | 0.15 (≈ 0.33 µM) | 5 (≈ 11 µM) | 6 (≈ 13.2 µM) | 96 | – | – | – | –
O=C(Nc1ccc(NC(=S)Nc2cc(N3CCCC3)cc(C(F)(F)F)c2)cc1)c1csnn1 [Example 560] | 0.008 (≈ 0.0162 µM) | >10 | >10 | – | – | – | – | –
O=C(Nc1ccc(NC(=S)Nc2ccc(I)c(Cl)c2)cc1)c1csnn1 [Example 971, [1,2,3]Thiadiazole-4-carboxylic acid {4-[3-(3-chloro-4-iodo-phenyl)-thioureido]-phenyl} -amide] | – | – | – | – | 0.013 (≈ 0.0252 µM) | > 10 | > 10 | 9
O=C(Nc1ccc(NC(=S)NCCc2ccc(Cl)c(Cl)c2)cc1)c1csnn1 [Example 645] | 0.003 (≈ 0.00663 µM) | >10 | 10 (≈ 22.1 µM) | – | – | – | – | –
O=C(Nc1ccc(NC(=S)Nc2cc(N3CCCCC3)cc(C(F)(F)F)c2)cc1)c1csnn1 [Example 535] | 0.016 (≈ 0.0316 µM) | >10 | >10 | – | – | – | – | –
O=C(Nc1ccc(NC(=S)Nc2cccc([N+](=O)[O-])c2)cc1)c1ccccc1F [Example 1009, 2-Fluoro-N-{4-[3-(3-nitro-phenyl)-thioureido]-phenyl} -benzamide] | – | – | – | – | 0.2 (≈ 0.487 µM) | 10 (≈ 24.4 µM) | – | 22
COc1cc(OC)c(NC(=S)Nc2ccc(NC(=O)c3c[nH]nn3)cc2)cc1Cl [Example 174] | 6 (≈ 13.9 µM) | 50 (≈ 116 µM) | >10 | 8 | – | – | – | –
N#Cc1cccc(NC(=S)Nc2ccc(NC(=O)c3csnn3)cc2)c1 [Example 453] | 0.07 (≈ 0.184 µM) | >10 | 3 (≈ 7.89 µM) | – | – | – | – | –
O=C(Nc1ccc(NC(=S)Nc2ccc(OC(F)(F)F)c(Br)c2)cc1)c1csnn1 [Example 550] | 0.013 (≈ 0.0251 µM) | >10 | >10 | – | – | – | – | –
O=C(Nc1ccc(NC(=S)Nc2ccc3[nH]nnc3c2)cc1)c1ccco1 [Example 526] | 3 (≈ 7.93 µM) | >10 | 2.5 (≈ 6.61 µM) | 22 | – | – | – | –
O=C(Nc1ccc(NC(=S)Nc2cccc(S(=O)(=O)CCO)c2)cc1)c1ccccc1F [Example 1019, 2-Fluoro-N-(4-{3-[3-(2-hydroxy-ethanesulfonyl)-phenyl]-thioureido} -phenyl)-benzamide] | – | – | – | – | 1.5 (≈ 3.17 µM) | > 10 | – | 2
CC(C)(C)c1cccc(NC(=S)Nc2ccc(NC(=O)c3csnn3)cc2)c1 [Example 509] | 0.03 (≈ 0.0729 µM) | >10 | >10 | 31 | – | – | – | –
O=C(CN1CCCCCC1)Nc1ccc(NC(=S)Nc2ccc(NC(=O)c3ccco3)cc2)cc1Cl [Example 422] | 0.058 (≈ 0.11 µM) | 5 (≈ 9.5 µM) | >10 | 69 | – | – | – | –
O=C(CN1CCCC1)Nc1ccc(NC(=S)Nc2ccc(NC(=O)c3ccco3)cc2)cc1Cl [Example 416] | 0.25 (≈ 0.502 µM) | >10 | >15 | 87 | – | – | – | –
O=C(Nc1ccc(NC(=S)NCc2ccc(N3CCCCC3)c(C(F)(F)F)c2)cc1)c1csnn1 [Example 601] | 0.0011 (≈ 0.00211 µM) | >10 | >10 | – | – | – | – | –
